According to PubChem BioAssay (NCI):
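Test compounds were applied to cells in 96-well plates for 48 hours at 5 doses. TGI: total growth inhibition.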

Legend:
Experiment in all cases: NCI-60 cell line screen, 48 h
MCF7 breast = system: MCF7 breast
NCI-H522 lung = system: NCI-H522 lung
U251 CNS = system: U251 CNS
MDA-MB-435 = system: MDA-MB-435
SK-OV-3 ovarian = system: SK-OV-3 ovarian
A498 renal = system: A498 renal
OVCAR-4 ovarian = system: OVCAR-4 ovarian
BT-549 breast = system: BT-549 breast
TK-10 renal = system: TK-10 renal
HOP-92 NSCLC = system: HOP-92 NSCLC
HOP-62 NSCLC = system: HOP-62 NSCLC
SNB-19 CNS = system: SNB-19 CNS
ACHN renal = system: ACHN renal
UACC-257 melanoma = system: UACC-257 melanoma
HCT-116 colon = system: HCT-116 colon
UACC-62 melanoma = system: UACC-62 melanoma
MDA-N = system: MDA-N
SR leukemia = system: SR leukemia
SF-539 CNS = system: SF-539 CNS
HCT-15 colon = system: HCT-15 colon
SK-MEL-28 melanoma = system: SK-MEL-28 melanoma
SK-MEL-2 melanoma = system: SK-MEL-2 melanoma
SN12C renal = system: SN12C renal
RPMI-8226 leukemia = system: RPMI-8226 leukemia
HT29 colon = system: HT29 colon
K-562 leukemia = system: K-562 leukemia
MOLT-4 leukemia = system: MOLT-4 leukemia
SF-295 CNS = system: SF-295 CNS
HCC-2998 colon = system: HCC-2998 colon
OVCAR-8 ovarian = system: OVCAR-8 ovarian
UO-31 renal = system: UO-31 renal
A549 NSCLC = system: A549 NSCLC
HS 578T breast = system: HS 578T breast
CAKI-1 renal = system: CAKI-1 renal
PC-3 prostate = system: PC-3 prostate
786-0 renal = system: 786-0 renal
NCI-H23 lung = system: NCI-H23 lung
CCRF-CEM leukemia = system: CCRF-CEM leukemia
MDA-MB-231 breast = system: MDA-MB-231 breast
LOX IMVI melanoma = system: LOX IMVI melanoma
MALME-3M melanoma = system: MALME-3M melanoma
SK-MEL-5 melanoma = system: SK-MEL-5 melanoma
M14 melanoma = system: M14 melanoma
COLO 205 colon = system: COLO 205 colon
NCI-H460 lung = system: NCI-H460 lung
RXF 393 renal = system: RXF 393 renal
EKVX NSCLC = system: EKVX NSCLC
NCI/ADR-RES ovarian = system: NCI/ADR-RES ovarian
SW-620 colon = system: SW-620 colon
DU-145 prostate = system: DU-145 prostate
SNB-75 CNS = system: SNB-75 CNS
OVCAR-3 ovarian = system: OVCAR-3 ovarian
IGROV1 ovarian = system: IGROV1 ovarian
T-47D breast = system: T-47D breast
SF-268 CNS = system: SF-268 CNS
KM12 colon = system: KM12 colon
NCI-H226 lung = system: NCI-H226 lung
OVCAR-5 ovarian = system: OVCAR-5 ovarian
HL-60(TB) leukemia = system: HL-60(TB) leukemia

Compound: CC(C)NC(=O)OCc1c(COC(=O)NC(C)C)c(-c2ccc[n+](COC(=O)C(C)(C)C)c2)n2c1CCC2
- TGI (MCF7 breast): > 100 µM
- TGI (NCI-H522 lung): > 81.5 µM
- TGI (U251 CNS): > 100 µM
- TGI (MDA-MB-435): > 100 µM
- TGI (SK-OV-3 ovarian): > 100 µM
- TGI (A498 renal): > 91.9 µM
- TGI (OVCAR-4 ovarian): > 100 µM
- TGI (BT-549 breast): > 100 µM
- TGI (TK-10 renal): > 100 µM
- TGI (HOP-92 NSCLC): > 100 µM
- TGI (HOP-62 NSCLC): > 100 µM
- TGI (SNB-19 CNS): > 100 µM
- TGI (ACHN renal): > 100 µM
- TGI (UACC-257 melanoma): > 100 µM
- TGI (HCT-116 colon): > 100 µM
- TGI (UACC-62 melanoma): > 100 µM
- TGI (MDA-N): > 100 µM
- TGI (SR leukemia): > 100 µM
- TGI (SF-539 CNS): > 100 µM
- TGI (HCT-15 colon): > 100 µM
- TGI (SK-MEL-28 melanoma): > 100 µM
- TGI (SK-MEL-2 melanoma): > 100 µM
- TGI (SN12C renal): > 100 µM
- TGI (RPMI-8226 leukemia): > 100 µM
- TGI (HT29 colon): > 100 µM
- TGI (K-562 leukemia): > 100 µM
- TGI (MOLT-4 leukemia): > 100 µM
- TGI (SF-295 CNS): > 100 µM
- TGI (HCC-2998 colon): > 100 µM
- TGI (OVCAR-8 ovarian): > 100 µM
- TGI (UO-31 renal): > 100 µM
- TGI (A549 NSCLC): > 100 µM
- TGI (HS 578T breast): > 100 µM
- TGI (CAKI-1 renal): 99.7 µM
- TGI (PC-3 prostate): > 100 µM
- TGI (786-0 renal): > 100 µM
- TGI (NCI-H23 lung): > 100 µM
- TGI (CCRF-CEM leukemia): > 100 µM
- TGI (MDA-MB-231 breast): > 100 µM
- TGI (LOX IMVI melanoma): > 100 µM
- TGI (MALME-3M melanoma): > 100 µM
- TGI (SK-MEL-5 melanoma): > 100 µM
- TGI (M14 melanoma): > 100 µM
- TGI (COLO 205 colon): > 100 µM
- TGI (NCI-H460 lung): > 100 µM
- TGI (RXF 393 renal): > 92.8 µM
- TGI (EKVX NSCLC): > 100 µM
- TGI (NCI/ADR-RES ovarian): > 100 µM
- TGI (SW-620 colon): > 100 µM
- TGI (DU-145 prostate): > 100 µM
- TGI (SNB-75 CNS): > 100 µM
- TGI (OVCAR-3 ovarian): > 100 µM
- TGI (IGROV1 ovarian): > 100 µM
- TGI (T-47D breast): > 100 µM
- TGI (SF-268 CNS): > 100 µM
- TGI (KM12 colon): > 100 µM
- TGI (NCI-H226 lung): > 100 µM
- TGI (OVCAR-5 ovarian): > 100 µM
- TGI (HL-60(TB) leukemia): > 94.9 µM
